Experimental data published in patent publication US9951088B2, “D2 receptor modulators and methods of use thereof in the treatment of diseases and disorders” (SUNOVION PHARMACEUTICALS INC., priority 2012, dated 2018).

How the values were obtained:
[1] = target: T1, long isoform of human D2 receptor (Homo sapiens, UniProt P14416); experiment: cAMP HTRF Agonist Assay (DRD2L PathHunter CHO-K1 cells, forskolin-stimulated)
[2] = target: T1, long isoform of human D2 receptor; experiment: Arrestin Antagonist Assay (DRD2L PathHunter CHO-K1 cells, vs EC80 dopamine); conditions: for Emax: CHO-K1, read-out: β-arrestin (antagonist mode) Imax
[3] = target: T1, long isoform of human D2 receptor; experiment: Arrestin Agonist Assay (DRD2L PathHunter CHO-K1 cells, β-arrestin recruitment)
[4] = CHO-K1, read-out: cAMP (agonist mode) Emax
[5] = CHO-K1, read-out: β-arrestin (agonist mode) Emax
[6] = CHO-K1, read-out: Emax in cAMP agonist assay
[7] = CHO-K1, read-out: Emax in β-arrestin agonist assay

T1 sequence (P14416 whole entry, canonical isoform): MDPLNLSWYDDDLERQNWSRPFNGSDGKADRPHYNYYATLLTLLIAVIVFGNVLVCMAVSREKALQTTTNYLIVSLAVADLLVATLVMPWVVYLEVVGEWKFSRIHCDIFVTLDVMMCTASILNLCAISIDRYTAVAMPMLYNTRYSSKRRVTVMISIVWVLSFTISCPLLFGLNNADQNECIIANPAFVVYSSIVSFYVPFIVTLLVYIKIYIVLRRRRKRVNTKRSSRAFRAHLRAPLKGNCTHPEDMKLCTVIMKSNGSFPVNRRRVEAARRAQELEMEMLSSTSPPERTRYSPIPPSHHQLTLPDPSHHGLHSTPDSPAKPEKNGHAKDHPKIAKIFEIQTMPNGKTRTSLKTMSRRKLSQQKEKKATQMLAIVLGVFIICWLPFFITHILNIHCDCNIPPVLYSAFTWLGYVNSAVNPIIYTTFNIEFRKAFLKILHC

Emax [1, 6] [%] | Emax [3, 7] [%] | Structure (SMILES) | IC50 [1] [nM] | Emax [1, 4] [%] | IC50 [2] [nM] | Emax [2] [%] | EC50 [3] [nM] | Emax [3, 5] [%]
 |  | O=C1CCc2ccc(OCCCCN3CCc4ccsc4C3)nc2N1 [Compound 70, 7-(4-(4,5-dihydrothieno[2,3-c]pyridin-6(7H)-yl)butoxy)-3,4-dihydro-1,8-naphthyridin-2(1H)-one] | > 10000 | < 10 | 100 to 1000 | > 75 | > 10000 | < 10
 |  | Clc1ccccc1N1CCN(CCCCOc2ccc3cn[nH]c3c2)CC1 [Compound 97, 6-(4-(4-(2-chlorophenyl)piperazin-1-yl)butoxy)-1H-indazole] | < 10 | 50 to 75 | 10 to 100 | 50 to 75 | < 10 | 10 to 25
 |  | Clc1cccc(N2CCN(CCCCOc3cccc(-c4cc[nH]n4)n3)CC2)c1Cl [Compound 46, 1-(4-((6-(1H-pyrazol-3-yl)pyridin-2-yl)oxy)butyl)-4-(2,3-dichlorophenyl)piperazine] | < 10 | 50 to 75 | < 10 | 50 to 75 | < 10 | 10 to 25
 |  | O=C1CCc2ccc(OCCCCN3CCc4nn(-c5ccccc5F)cc4C3)cc2N1 [Compound 35, 7-(4-(2-(2-fluorophenyl)-6,7-dihydro-2H-pyrazolo[4,3-c]pyridin-5(4H)-yl)butoxy)-3,4-dihydroquinolin-2(1H)-one] | > 10000 | < 10 | 10 to 100 | > 75 | > 10000 | < 10
 |  | O=C1CCc2ccc(OCCCCN3CCc4ncsc4C3)cc2N1 [Compound 26, 7-(4-(6,7-dihydrothiazolo[5,4-c]pyridin-5(4H)-yl)butoxy)-3,4-dihydroquinolin-2(1H)-one] | 10 to 100 | 25 to 50 | 1000 to 10000 | > 75 | < 10 | 10 to 25
 |  | O=C1CCc2ccc(OCCCCN3CCc4sccc4C3)cc2N1 [Compound 27, 7-(4-(6,7-dihydrothieno[3,2-c]pyridin-5(4H)-yl)butoxy)-3,4-dihydroquinolin-2(1H)-one] | < 10 | 10 to 25 | 10 to 100 | > 75 | > 10000 | < 10
 |  | O=c1ccc2ccc(OCCCCN3CCc4c(cccc4C(F)(F)F)C3)nc2[nH]1 [Compound 61, 7-(4-(5-(trifluoromethyl)-3,4-dihydroisoquinolin-2(1H)-yl)butoxy)-1,8-naphthyridin-2(1H)-one] | < 10 | > 75 | > 10000 | < 10 | 10 to 100 | > 75
 |  | Oc1cccc2ccc(OCCCCN3CCc4cc(F)ccc4C3)nc12 [Compound 16, 2-(4-(6-fluoro-3,4-dihydroisoquinolin-2(1H)-yl)butoxy)quinolin-8-ol] | > 10000 | < 10 | 100 to 1000 | > 75 | > 10000 | < 10
 |  | O=C1NCCc2ccc(OCCCCN3CCc4sccc4C3)nc2N1 [Compound 86, 8-(4-(6,7-dihydrothieno[3,2-c]pyridin-5(4H)-yl)butoxy)-4,5-dihydro-1H-pyrido[2,3-d][1,3]diazepin-2(3H)-one] | > 10000 | < 10 | 10 to 100 | > 75 | > 10000 | < 10
 |  | O=C1CCc2ccc(OCCCCN3CCc4nn(-c5cccc(F)c5)cc4C3)cc2N1 [Compound 36, 7-(4-(2-(3-fluorophenyl)-6,7-dihydro-2H-pyrazolo[4,3-c]pyridin-5(4H)-yl)butoxy)-3,4-dihydroquinolin-2(1H)-one] | < 10 | > 75 | > 10000 | < 10 | < 10 | > 75
 |  | O=C1CCc2ccc(OCCCCN3CCc4nn(-c5ccccn5)cc4C3)cc2N1 [Compound 38, 7-(4-(2-(pyridin-2-yl)-6,7-dihydro-2H-pyrazolo[4,3-c]pyridin-5(4H)-yl)butoxy)-3,4-dihydroquinolin-2(1H)-one] | < 10 | 50 to 75 | 10 to 100 | 25 to 50 | < 10 | 25 to 50
 |  | CCCOc1cccnc1N1CCN(CCCCOc2ccc3cccc(O)c3n2)CC1 [Compound 11, 2-(4-(4-(3-propoxypyridin-2-yl)piperazin-1-yl)butoxy)quinolin-8-ol] | > 10000 | < 10 | 100 to 1000 | > 75 | > 10000 | < 10
 |  | COc1ccc2c(c1)CCN(CCCCOc1ccc3cccc(O)c3n1)C2 [Compound 13, 2-(4-(6-methoxy-3,4-dihydroisoquinolin-2(1H)-yl)butoxy)quinolin-8-ol] | > 10000 | < 10 | 1000 to 10000 | > 75 | < 10 | 10 to 25
 |  | O=C1CCc2ccc(OCCCCN3CCc4c(cccc4C(F)(F)F)C3)nc2N1 [Compound 77, 7-(4-(5-(trifluoromethyl)-3,4-dihydroisoquinolin-2(1H)-yl)butoxy)-3,4-dihydro-1,8-naphthyridin-2(1H)-one] | 10 to 100 | 50 to 75 | > 10000 | < 10 | 100 to 1000 | 50 to 75
 |  | O=C1CCc2ccc(OCCCCN3CCc4cccc(C(F)(F)F)c4C3)nc2N1 [Compound 79, 7-(4-(8-(trifluoromethyl)-3,4-dihydroisoquinolin-2(1H)-yl)butoxy)-3,4-dihydro-1,8-naphthyridin-2(1H)-one] | > 10000 | < 10 | 100 to 1000 | > 75 | > 10000 | < 10
 |  | O=C1NCCc2ccc(OCCCCN3CCc4c(Cl)cccc4C3)nc2N1 [Compound 88, 8-(4-(5-chloro-3,4-dihydroisoquinolin-2(1H)-yl)butoxy)-4,5-dihydro-1H-pyrido[2,3-d][1,3]diazepin-2(3H)-one] | < 10 | 50 to 75 | 100 to 1000 | 25 to 50 | 10 to 100 | 25 to 50
 |  | N#Cc1ccc2c(c1)CCN(CCCCOc1ccc3c(n1)NC(=O)CC3)C2 [Compound 73, 2-(4-((7-oxo-5,6,7,8-tetrahydro-1,8-naphthyridin-2-yl)oxy)butyl)-1,2,3,4-tetrahydroisoquinoline-6-carbonitrile] | > 10000 | < 10 | 100 to 1000 | > 75 | > 10000 | < 10
 |  | O=C1NCCc2ccc(OCCCCN3CCc4ccsc4C3)nc2N1 [Compound 87] | > 10000 | < 10 | 10 to 100 | > 75 | > 10000 | < 10
 |  | Oc1cccc2ccc(OCCCCN3CCc4sccc4C3)nc12 [Compound 18, 2-(4-(6,7-dihydrothieno[3,2-c]pyridin-5(4H)-yl)butoxy)quinolin-8-ol] | > 10000 | < 10 | 1000 to 10000 | > 75 | > 10000 | < 10
 |  | COc1cccnc1N1CCN(CCCCOc2cccc(-c3cc[nH]n3)n2)CC1 [Compound 47, 1-(4-((6-(1H-pyrazol-3-yl)pyridin-2-yl)oxy)butyl)-4-(3-methoxypyridin-2-yl)piperazine] | < 10 | 50 to 75 | < 10 | 50 to 75 | < 10 | 10 to 25
 |  | Cc1cccc(N2CCN(CCCCOc3ccc4cccc(O)c4n3)CC2)c1C [Compound 7, 2-(4-(4-(2,3-dimethylphenyl)piperazin-1-yl)butoxy)quinolin-8-ol] | 10 to 100 | 25 to 50 | 100 to 1000 | > 75 | > 10000 | < 10
 |  | O=C1CCc2ccc(OCCCCN3CCc4nn(-c5ccc(F)cc5)cc4C3)cc2N1 [Compound 37, 7-(4-(2-(4-fluorophenyl)-6,7-dihydro-2H-pyrazolo[4,3-c]pyridin-5(4H)-yl)butoxy)-3,4-dihydroquinolin-2(1H)-one] | > 10000 | < 10 | 10 to 100 | > 75 | > 10000 | < 10
 |  | CCOc1ccccc1N1CCN(CCCCOc2ccc3cn[nH]c3c2)CC1 [Compound 93, 6-(4-(4-(2-ethoxyphenyl)piperazin-1-yl)butoxy)-1H-indazole] | < 10 | 25 to 50 | 10 to 100 | > 75 | < 10 | 10 to 25
 |  | O=c1ccc2ccc(OCCCCN3CCc4c(Cl)cccc4C3)nc2[nH]1 [Compound 60, 7-(4-(5-chloro-3,4-dihydroisoquinolin-2(1H)-yl)butoxy)-1,8-naphthyridin-2(1H)-one] | < 10 | > 75 | > 10000 | < 10 | < 10 | > 75
 |  | O=c1ccc2ccc(OCCCCN3CCc4ccsc4C3)nc2[nH]1 [Compound 54, 7-(4-(4,5-dihydrothieno[2,3-c]pyridin-6(7H)-yl)butoxy)-1,8-naphthyridin-2(1H)-one] | > 10000 | < 10 | < 10 | > 75 | > 10000 | < 10
 |  | O=C1NCCc2ccc(OCCCCN3CCc4cc(Cl)ccc4C3)nc2N1 [Compound 85, 8-(4-(6-chloro-3,4-dihydroisoquinolin-2(1H)-yl)butoxy)-4,5-dihydro-1H-pyrido[2,3-d][1,3]diazepin-2(3H)-one] | > 10000 | < 10 | 10 to 100 | > 75 | > 10000 | < 10
≥ 90 | ≥ 90 | CCCN[C@H]1CCc2nc(N)sc2C1 [pramipexole, reference compound] |  |  |  |  |  | 
≥ 90 | ≥ 90 | CCCN(CCC)CCc1cccc2c1CC(=O)N2 [ropinirole, reference compound] |  |  |  |  |  | 
